From paper PMC11219871, “Epigenetic-based differentiation therapy for Acute Myeloid Leukemia” (Nature Communications, 2024)

Experiments:
[1] = molecular target: HDAC1 (Homo sapiens, UniProt Q13547); test: HDAC enzymatic assay, fluorescence-labeled substrate; assay type: biochemical; settings: read-out: HDAC1 IC50
[2] = test system: HL-60; test: Differentiation-apoptosis assay, CD11b / annexin-V / Sytox Green / myeloid markers flow cytometry; assay type: cell-based, human; settings: HL-60, daily 25% GI50, 48 h
Method: Next, the cells were washed twice with phosphate-buffered saline (PBS) and resuspended in 1X Binding Buffer at a concentration of 1 × 10^6 cells/mL. […] Finally, after the addition of 400 µL of 1X Binding Buffer to each tube, samples were collected on a BD FACSCanto flow cytometer (Becton Dickinson, San Jose, CA, USA) and analyzed using FlowJo software.
Then, 1 million cells (volume of 250 µL) were added and incubated for 30 min at room temperature in darkness. After 10 min incubation at room temperature with 2 mL of FACSLysing 1X, cells were centrifuged at 540 g for 5 min and washed twice with FACSBuffer. Finally, after centrifugation at 540 g for 5 min cells were resuspended in FACSBuffer.

[3] = test system: HL-60; test: Cell proliferation assay: GI50; assay type: cell-based, human; settings: 48 h; read-out: HL-60 GI50
Method: Cell proliferation was analyzed using the CellTiter 96 Aqueous One Solution Cell Proliferation Assay (Promega, Madison, WI). This is a colorimetric method for determining the number of viable cells in proliferation. For the assay, suspension cells were cultured in triplicate at a density of 1 × 10^6 cells/mL in 96-well plates (100.000 cells/well, 100 µL/well), using only the 60 inner wells to avoid any border effects. […] Then, the cells were incubated with 100 μL/well of medium and 20 μL/well of CellTiter 96 Aqueous One Solution reagent for 1–3 h. […] The background absorbance was measured in wells with only cell line medium and solution reagent. First, the average of the absorbance from the control wells was subtracted from all other absorbance values. Data were calculated as the percentage of total absorbance of treated cells/absorbance of non-treated cells. The GI50 values of the different compounds were determined using non-linear regression plots made with GraphPad Prism v5 software.

[4] = molecular target: T1, HDAC6 (Homo sapiens, UniProt Q9UBN7); test: HDAC enzymatic assay, fluorescence-labeled substrate; assay type: biochemical; settings: read-out: HDAC6 IC50
T1 sequence (Q9UBN7 1-1215): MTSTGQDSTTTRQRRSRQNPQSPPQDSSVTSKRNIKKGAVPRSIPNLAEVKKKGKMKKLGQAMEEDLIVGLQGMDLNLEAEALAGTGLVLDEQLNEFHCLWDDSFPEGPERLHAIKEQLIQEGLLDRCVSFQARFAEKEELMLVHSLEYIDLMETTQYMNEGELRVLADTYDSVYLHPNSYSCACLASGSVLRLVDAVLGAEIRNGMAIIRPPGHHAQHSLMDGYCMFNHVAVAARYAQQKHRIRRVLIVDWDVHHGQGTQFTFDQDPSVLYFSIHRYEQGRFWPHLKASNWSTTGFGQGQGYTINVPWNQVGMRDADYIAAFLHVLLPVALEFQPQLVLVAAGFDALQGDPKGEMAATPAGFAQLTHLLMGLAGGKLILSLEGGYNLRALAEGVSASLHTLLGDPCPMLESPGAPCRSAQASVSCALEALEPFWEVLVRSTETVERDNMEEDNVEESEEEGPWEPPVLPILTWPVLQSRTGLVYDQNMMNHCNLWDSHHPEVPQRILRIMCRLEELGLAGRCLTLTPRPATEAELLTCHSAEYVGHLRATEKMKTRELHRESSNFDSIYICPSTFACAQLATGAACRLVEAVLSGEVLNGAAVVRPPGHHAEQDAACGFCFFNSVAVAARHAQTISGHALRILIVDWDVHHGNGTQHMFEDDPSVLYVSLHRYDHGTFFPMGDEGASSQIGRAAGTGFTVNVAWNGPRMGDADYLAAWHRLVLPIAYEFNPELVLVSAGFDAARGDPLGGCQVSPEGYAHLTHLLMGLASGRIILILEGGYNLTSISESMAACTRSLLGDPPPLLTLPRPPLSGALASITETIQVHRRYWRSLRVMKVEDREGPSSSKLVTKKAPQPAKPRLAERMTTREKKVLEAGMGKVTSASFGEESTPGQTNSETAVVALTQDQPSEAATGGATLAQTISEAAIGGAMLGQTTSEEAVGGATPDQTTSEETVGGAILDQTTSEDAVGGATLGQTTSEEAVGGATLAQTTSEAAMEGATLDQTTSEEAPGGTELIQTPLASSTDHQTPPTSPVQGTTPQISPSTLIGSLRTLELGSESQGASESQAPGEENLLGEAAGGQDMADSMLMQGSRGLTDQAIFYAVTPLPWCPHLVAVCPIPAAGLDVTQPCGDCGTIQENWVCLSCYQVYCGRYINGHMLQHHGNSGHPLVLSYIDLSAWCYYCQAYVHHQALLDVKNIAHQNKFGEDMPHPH

Chain of HDAC1 (Q13547 whole entry): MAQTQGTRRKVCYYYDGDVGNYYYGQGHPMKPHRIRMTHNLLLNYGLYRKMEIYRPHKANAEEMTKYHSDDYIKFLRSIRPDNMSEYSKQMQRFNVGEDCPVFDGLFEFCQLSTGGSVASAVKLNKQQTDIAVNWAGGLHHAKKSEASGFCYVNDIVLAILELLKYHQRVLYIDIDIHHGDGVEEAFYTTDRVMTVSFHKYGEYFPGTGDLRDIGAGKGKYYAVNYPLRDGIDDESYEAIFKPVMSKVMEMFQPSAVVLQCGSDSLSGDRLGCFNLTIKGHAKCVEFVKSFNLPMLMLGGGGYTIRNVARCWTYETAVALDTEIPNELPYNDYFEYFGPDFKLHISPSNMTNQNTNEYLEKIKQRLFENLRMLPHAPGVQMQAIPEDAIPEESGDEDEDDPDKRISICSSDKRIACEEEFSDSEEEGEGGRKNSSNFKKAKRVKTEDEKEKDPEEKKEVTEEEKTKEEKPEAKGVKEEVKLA

IC50 [1]: > 20 µM | GI50 [3]: 2.9 µM | IC50 [4]: > 20 µM
Compound: COc1cc2c(NC3CCN(C)CC3)cc(-c3ccc(C)o3)nc2cc1OCCCN1CCCC1 [CM-272]
Annexin V (%) Replicate 1 [2]: 1.02% | Annexin V (%) Replicate 2 [2]: 1.64% | Annexin V (%) Replicate 3 [2]: 1.88% | CD11b (%) Replicate 1 [2]: 1.50% | CD11b (%) Replicate 2 [2]: 0.87% | CD11b (%) Replicate 3 [2]: 0.44% | Annexin V + (%) ([2]; mean of three): 1.51% | CD11b+ (%) ([2]; mean of three): 0.94%
